Measured values taken from PubChem BioAssay (NCI).
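The compound was tested at five concentrations on cells cultured in 96-well plates, with a 48-hour exposure period. TGI: concentration producing complete growth inhibition.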

Tests used:
Experiment in all cases: inhibition of tumour cell growth, NCI panel, 48 h
[1] = test system: 786-0 renal
[2] = test system: A498 renal
[3] = test system: A549 NSCLC
[4] = test system: ACHN renal
[5] = test system: BT-549 breast
[6] = test system: CAKI-1 renal
[7] = test system: CCRF-CEM leukemia
[8] = test system: COLO 205 colon
[9] = test system: DU-145 prostate
[10] = test system: EKVX NSCLC
[11] = test system: HCT-116 colon
[12] = test system: HCT-15 colon
[13] = test system: HL-60(TB) leukemia
[14] = test system: HOP-62 NSCLC
[15] = test system: HOP-92 NSCLC
[16] = test system: HS 578T breast
[17] = test system: HT29 colon
[18] = test system: IGROV1 ovarian
[19] = test system: K-562 leukemia
[20] = test system: KM12 colon
[21] = test system: LOX IMVI melanoma
[22] = test system: M14 melanoma
[23] = test system: MALME-3M melanoma
[24] = test system: MCF7 breast
[25] = test system: MDA-MB-231 breast
[26] = test system: MDA-MB-435
[27] = test system: MDA-N
[28] = test system: MOLT-4 leukemia
[29] = test system: NCI-H226 lung
[30] = test system: NCI-H23 lung
[31] = test system: NCI-H460 lung
[32] = test system: NCI-H522 lung
[33] = test system: NCI/ADR-RES ovarian
[34] = test system: OVCAR-3 ovarian
[35] = test system: OVCAR-4 ovarian
[36] = test system: OVCAR-5 ovarian
[37] = test system: OVCAR-8 ovarian
[38] = test system: PC-3 prostate
[39] = test system: RPMI-8226 leukemia
[40] = test system: RXF 393 renal
[41] = test system: SF-268 CNS
[42] = test system: SF-295 CNS
[43] = test system: SF-539 CNS
[44] = test system: SK-MEL-2 melanoma
[45] = test system: SK-MEL-28 melanoma
[46] = test system: SK-MEL-5 melanoma
[47] = test system: SK-OV-3 ovarian
[48] = test system: SN12C renal
[49] = test system: SNB-19 CNS
[50] = test system: SNB-75 CNS
[51] = test system: SR leukemia
[52] = test system: SW-620 colon
[53] = test system: T-47D breast
[54] = test system: TK-10 renal
[55] = test system: U251 CNS
[56] = test system: UACC-257 melanoma
[57] = test system: UACC-62 melanoma
[58] = test system: UO-31 renal
[59] = test system: HCC-2998 colon

`O=C1C[C@@H](Sc2ccccc2)C2(OCCO2)C2ON3CCCC[C@H]3[C@H]12` (stereo partly drawn) was tested, and the TGI [1] was 12.7 µM, the TGI [2] was > 95.3 µM and the TGI [3] was 31.4 µM. For the same compound, the TGI [4] was 6.33 µM, the TGI [5] was 20.7 µM and the TGI [6] was 21 µM. It also gave a TGI [7] of 4.71 µM, a TGI [8] of 27.1 µM and a TGI [9] of 24.5 µM. For the same compound, the TGI [10] was 26.1 µM, the TGI [11] was 16.7 µM and the TGI [12] was > 29.6 µM. It also gave a TGI [13] of 4.9 µM, a TGI [14] of 33 µM and a TGI [15] of 19.2 µM. For the same compound, the TGI [16] was 31 µM, the TGI [17] was 15.7 µM and the TGI [18] was 19.2 µM. For the same compound, the TGI [19] was 6.79 µM, the TGI [20] was 19.7 µM and the TGI [21] was 10.1 µM. It also gave a TGI [22] of 30.3 µM, a TGI [23] of 22.9 µM and a TGI [24] of 14.3 µM. For the same compound, the TGI [25] was 25.9 µM, the TGI [26] was 34.7 µM and the TGI [27] was 33.3 µM. It also gave a TGI [28] of 5.1 µM, a TGI [29] of 33.2 µM and a TGI [30] of 22.8 µM. It also gave a TGI [31] of 28.8 µM, a TGI [32] of 6.93 µM and a TGI [33] of 18.9 µM. For the same compound, the TGI [34] was 26.8 µM, the TGI [35] was 21.8 µM and the TGI [36] was 33.5 µM. It also gave a TGI [37] of 13.9 µM, a TGI [38] of 24.2 µM and a TGI [39] of 12.5 µM. It also gave a TGI [40] of 12.3 µM, a TGI [41] of 23.3 µM and a TGI [42] of 38.4 µM. It also gave a TGI [43] of 4.5 µM, a TGI [44] of 39.8 µM and a TGI [45] of 41.6 µM. The TGI [46] was 20.7 µM, the TGI [47] was > 100 µM and the TGI [48] was 14.8 µM. It also gave a TGI [49] of 32.1 µM, a TGI [50] of 29.9 µM and a TGI [51] of 4.35 µM. It also gave a TGI [52] of 14.4 µM, a TGI [53] of 46.8 µM and a TGI [54] of 13 µM. For the same compound, the TGI [55] was > 39.5 µM, the TGI [56] was 28.1 µM and the TGI [57] was 18.5 µM. The TGI [58] was 17.3 µM.
For `Cc1cc(S(=O)(=O)n2cc[nH]c2=O)c(SCCCN(C)C)cc1Cl`, the TGI [1] was > 100 µM, the TGI [2] was > 100 µM and the TGI [3] was > 100 µM. The TGI [4] was > 100 µM, the TGI [5] was > 100 µM and the TGI [6] was > 100 µM. For the same compound, the TGI [7] was > 100 µM, the TGI [8] was > 100 µM and the TGI [9] was > 100 µM. For the same compound, the TGI [10] was > 100 µM, the TGI [59] was > 100 µM and the TGI [11] was > 100 µM. The TGI [12] was > 100 µM, the TGI [14] was > 100 µM and the TGI [16] was > 100 µM. The TGI [17] was > 100 µM, the TGI [18] was > 100 µM and the TGI [19] was > 100 µM. For the same compound, the TGI [20] was > 100 µM, the TGI [21] was > 100 µM and the TGI [22] was > 100 µM. The TGI [23] was > 100 µM, the TGI [24] was > 100 µM and the TGI [25] was > 100 µM. For the same compound, the TGI [26] was > 100 µM, the TGI [27] was > 100 µM and the TGI [28] was > 100 µM. The TGI [29] was > 100 µM, the TGI [30] was > 100 µM and the TGI [31] was > 100 µM. For the same compound, the TGI [32] was > 100 µM, the TGI [33] was > 100 µM and the TGI [34] was > 100 µM. The TGI [35] was > 100 µM, the TGI [36] was > 100 µM and the TGI [37] was > 100 µM. For the same compound, the TGI [38] was > 100 µM, the TGI [40] was > 100 µM and the TGI [41] was > 100 µM. The TGI [42] was > 100 µM, the TGI [43] was > 100 µM and the TGI [44] was > 100 µM. The TGI [45] was > 100 µM, the TGI [46] was > 100 µM and the TGI [47] was > 100 µM. The TGI [48] was > 100 µM, the TGI [49] was > 100 µM and the TGI [51] was > 100 µM. The TGI [52] was > 100 µM, the TGI [53] was > 100 µM and the TGI [54] was > 100 µM. For the same compound, the TGI [55] was > 100 µM, the TGI [56] was > 100 µM and the TGI [57] was > 100 µM. For the same compound, the TGI [58] was > 100 µM.
`COC(=O)C(Cc1c[nH]c2ccccc12)NP(=O)(O)OCC1OC(n2ccc(N)nc2=O)C(O)C1O` (stereo not drawn) was tested, and the TGI [1] was > 100 µM, the TGI [2] was > 100 µM and the TGI [3] was > 100 µM. For the same compound, the TGI [4] was > 100 µM, the TGI [5] was > 100 µM and the TGI [6] was > 100 µM. The TGI [7] was > 100 µM, the TGI [8] was > 100 µM and the TGI [9] was > 100 µM. The TGI [10] was > 100 µM, the TGI [11] was > 100 µM and the TGI [12] was > 100 µM. For the same compound, the TGI [13] was > 100 µM, the TGI [14] was > 100 µM and the TGI [15] was > 100 µM. For the same compound, the TGI [16] was > 100 µM, the TGI [17] was > 100 µM and the TGI [18] was > 100 µM. The TGI [19] was > 100 µM, the TGI [20] was > 100 µM and the TGI [21] was > 100 µM. For the same compound, the TGI [22] was > 100 µM, the TGI [23] was > 100 µM and the TGI [24] was > 100 µM. The TGI [25] was > 100 µM, the TGI [26] was > 100 µM and the TGI [27] was > 100 µM. For the same compound, the TGI [28] was > 100 µM, the TGI [29] was > 100 µM and the TGI [30] was > 100 µM. The TGI [31] was > 100 µM, the TGI [32] was > 100 µM and the TGI [33] was > 100 µM. For the same compound, the TGI [34] was > 100 µM, the TGI [35] was > 100 µM and the TGI [36] was > 100 µM. The TGI [37] was > 100 µM, the TGI [38] was > 100 µM and the TGI [39] was > 100 µM. For the same compound, the TGI [41] was > 100 µM, the TGI [42] was > 100 µM and the TGI [43] was > 100 µM. The TGI [45] was > 100 µM, the TGI [46] was > 100 µM and the TGI [48] was > 100 µM. The TGI [49] was > 100 µM, the TGI [50] was > 100 µM and the TGI [51] was > 100 µM. The TGI [52] was > 100 µM, the TGI [53] was > 100 µM and the TGI [54] was > 100 µM. For the same compound, the TGI [55] was > 100 µM, the TGI [56] was > 100 µM and the TGI [57] was > 100 µM. The TGI [58] was > 100 µM.
